Assay results as given in US8658642B2 (Axikin Pharmaceuticals, Inc., priority 2009, dated 2014).

Target: T1, CCR3 (Homo sapiens, UniProt P51677)
T1 sequence (P51677 1-355): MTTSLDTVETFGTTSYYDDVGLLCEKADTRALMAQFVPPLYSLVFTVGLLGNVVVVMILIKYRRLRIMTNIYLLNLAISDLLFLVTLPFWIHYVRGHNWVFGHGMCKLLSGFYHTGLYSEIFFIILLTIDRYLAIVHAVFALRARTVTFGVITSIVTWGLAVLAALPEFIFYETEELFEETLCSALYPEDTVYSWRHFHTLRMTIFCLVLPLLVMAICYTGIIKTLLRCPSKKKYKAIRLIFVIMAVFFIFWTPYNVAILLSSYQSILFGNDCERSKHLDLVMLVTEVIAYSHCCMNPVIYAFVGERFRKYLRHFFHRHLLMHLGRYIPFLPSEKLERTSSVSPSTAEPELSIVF
Assay: CCR3 receptor binding assay ([125I]-labeled human eotaxin/CCL11 displacement on cells)
Details: 0.1 nM [125I]-labeled human eotaxin/CCL11, 2×10^5 cells/well, 60 min at room temperature
Method: CCR3 Receptor Binding Assay
Cells were washed once with PBS and resuspended in a binding buffer (25 mM HEPES pH 7.6, 5 mM MgCl2, 1 mM CaCl2, 0.5% BSA, 0.1% NaN3). […] of cell suspension (2×10^5 cells/well) and 0.1 nM [^125I]-labeled human eotaxin/CCL11 (2000 Ci/mmol specific activity) were mixed in a 96-well U-bottom polypropylene plate, and incubated for 60 min at room temperature for the binding reaction. The cell suspension was then transferred to a filtration plate (#MAFB, Millipore), and washed 3 times with the binding buffer containing 0.5 M NaCl, scintillant added, and the radioactivity was counted on a TopCount (Packard). For the determination of non-specific binding, the cell suspension and [^125I]-labeled human eotaxin/CCL11 were incubated in the presence of 500 nM of unlabeled human eotaxin/CCL11. See, lino et al., “Molecular cloning and functional characterization of cynomolgus monkey (Macaca fascicularis) CC chemokine receptor, CCR3,” Cytokine 2002, 19, 276-286.

Structure (SMILES)	Ki [nM]
O=C(C1CCC1)N1CCN(S(=O)(=O)c2cc([N+](=O)[O-])ccc2Sc2cc(Cl)ccc2Cl)CC1 [Compound 161, Cyclobutyl(4-(2-(2,5-dichlorophenylthio)-5-nitrophenylsulfonyl)piperazin-1-yl)methanone]	> 5000
CC(C)(C)CC(=O)N1CCN(S(=O)(=O)c2cc(C#N)ccc2Oc2cc(Cl)cc(Cl)c2)CC1 [Compound 71, 4-(3,5-Dichlorophenoxy)-3-(4-(3,3-dimethylbutanoyl)piperazin-1-ylsulfonyl)benzonitrile]	> 5000
Cc1ccc(OC(=O)N2CCN(S(=O)(=O)c3cc(C#N)ccc3Oc3cc(Cl)cc(Cl)c3)CC2)cc1 [Compound 157]	> 5000
N#Cc1ccc(Oc2cc(Cl)cc(Cl)c2)c(S(=O)(=O)N2CCN(C(=O)c3cnccn3)CC2)c1 [Compound 133]	50 to 500
N#Cc1ccc(Oc2cc(Cl)cc(Cl)c2)c(S(=O)(=O)N2CCN(C(=O)NCc3ccccc3)CC2)c1 [Compound 97]	50 to 500
Cc1cc(C)cc(Oc2ccc(C#N)cc2S(=O)(=O)N2CCN(C(=O)C3CCCC3)CC2)c1 [Compound 68, 3-(4-(Cyclopentanecarbonyl)piperazin-1-ylsulfonyl)-4-(3,5-dimethylphenoxy)benzonitrile]	> 5000
N#Cc1ccc(Oc2cc(Cl)cc(Cl)c2)c(S(=O)(=O)N2CCN(C(=O)c3cc4ccccc4s3)CC2)c1 [Compound 131]	> 5000
Cc1ccccc1C(=O)N1CCN(S(=O)(=O)c2cc(C#N)ccc2Oc2cc(Cl)cc(Cl)c2)CC1 [Compound 83, 4-(3,5-Dichlorophenoxy)-3-(4-(2-methylbenzoyl)piperazin-1-ylsulfonyl)benzonitrile]	500 to 5000
O=C(CCCCl)N1CCN(S(=O)(=O)c2cc([N+](=O)[O-])ccc2Sc2cc(Cl)ccc2Cl)CC1 [Compound 160, 4-Chloro-1-(4-(2-(2,5-dichlorophenylthio)-5-nitrophenylsulfonyl)piperazin-1-yl)butan-1-one]	> 5000
Cc1ccc(C)c(Oc2ccc([N+](=O)[O-])cc2S(=O)(=O)N2CCN(C(=O)c3ccco3)CC2)c1 [Compound 190, (4-(2-(2,5-Dimethylphenoxy)-5-nitrophenylsulfonyl)piperazin-1-yl)(furan-2-yl)methanone]	> 5000
Cc1cc(C)cc(Sc2ccc(C#N)cc2S(=O)(=O)N2CCN(C(=O)c3cccc(C)c3)CC2)c1 [Compound 91, 4-(3,5-Dimethylphenylthio)-3-(4-(3-methylbenzoyl)piperazin-1-ylsulfonyl)benzonitrile]	50 to 500
N#Cc1ccc(Oc2cc(Cl)cc(Cl)c2)c(S(=O)(=O)N2CCN(C(=O)C3CCC3)CC2)c1 [Compound 73, 3-(4-(Cyclobutanecarbonyl)piperazin-1-ylsulfonyl)-4-(3,5-dichlorophenoxy)benzonitrile]	> 5000
N#CCC(=O)N1CCN(S(=O)(=O)c2cc(C#N)ccc2Oc2cc(Cl)cc(Cl)c2)CC1 [Compound 148]	50 to 500
C=CCOC(=O)N1CCN(S(=O)(=O)c2cc(C#N)ccc2Oc2cc(Cl)cc(Cl)c2)CC1 [Compound 159]	> 5000
CC(C)C(=O)N1CCN(S(=O)(=O)c2cc(C#N)ccc2Oc2cc(Cl)cc(Cl)c2)CC1 [Compound 110]	≤ 50
CC(=O)c1cccc(NC(=O)N2CCN(S(=O)(=O)c3cc(C#N)ccc3Oc3cc(Cl)cc(Cl)c3)CC2)c1 [Compound 140]	≤ 50
N#Cc1ccc(Oc2cc(Cl)cc(Cl)c2)c(S(=O)(=O)N2CCN(C(=O)c3cc4ccccc4o3)CC2)c1 [Compound 129]	> 5000
N#Cc1ccc(Oc2cc(Cl)cc(Cl)c2)c(S(=O)(=O)N2CCN(C(=O)Oc3ccc([N+](=O)[O-])cc3)CC2)c1 [Compound 155]	> 5000
COc1ccc(C(=O)N2CCN(S(=O)(=O)c3cc([N+](=O)[O-])ccc3Sc3cc(Cl)ccc3Cl)CC2)cc1 [Compound 165, (4-Methoxyphenyl)(4-(2-(2,5-dichlorophenylthio)-5-nitrophenylsulfonyl)-piperazin-1-yl)methanone]	> 5000

Structure (SMILES)	Ki [nM]
N#Cc1ccc(Oc2cc(Cl)cc(Cl)c2)c(S(=O)(=O)N2CCN(C(=O)c3ccc(Cl)cc3)CC2)c1 [Compound 78, 3-(4-(4-Chlorobenzoyl)piperazin-1-ylsulfonyl)-4-(3,5-dichlorophenoxy)benzonitrile]	50 to 500
Cc1ccccc1C(=O)N1CCN(S(=O)(=O)c2cc(C#N)ccc2Sc2cc(Cl)cc(Cl)c2)CC1 [Compound 106]	> 5000
CC(=O)N1CCN(S(=O)(=O)c2cc(C#N)ccc2Oc2cc(Cl)cc(Cl)c2)CC1 [Compound 109]	≤ 50
N#Cc1ccc(Oc2cc(Cl)cc(Cl)c2)c(S(=O)(=O)N2CCN(C(=O)c3ccccc3F)CC2)c1 [Compound 85, 4-(3,5-Dichlorophenoxy)-3-(4-(2-fluorobenzoyl)piperazin-1-ylsulfonyl)benzonitrile]	500 to 5000
CC(C)NC(=S)N1CCN(S(=O)(=O)c2cc(C#N)ccc2Oc2cc(Cl)cc(Cl)c2)CC1 [Compound 95]	50 to 500
N#Cc1ccc(Oc2cc(Cl)cc(Cl)c2)c(S(=O)(=O)N2CCN(C(=S)NCc3ccco3)CC2)c1 [Compound 136]	≤ 50
Cc1cc(C)cc(Oc2ccc(C#N)cc2S(=O)(=O)N2CCN(C(=O)C(C)C)CC2)c1 [Compound 108]	> 5000
N#Cc1ccc(Oc2cc(Cl)cc(Cl)c2)c(S(=O)(=O)N2CCN(C(=S)NCc3cccc(Cl)c3)CC2)c1 [Compound 149]	> 5000
Cc1cc(C(=O)N2CCN(S(=O)(=O)c3cc(C#N)ccc3Oc3cc(Cl)cc(Cl)c3)CC2)n(C)n1 [Compound 126]	> 5000
CC(C)CC(=O)N1CCN(S(=O)(=O)c2cc([N+](=O)[O-])ccc2Oc2cc(Cl)ccc2Cl)CC1 [Compound 177, 1-(4-(2-(2,5-Dichlorophenoxy)-5-nitrophenylsulfonyl)piperazin-1-yl)-3-methylbutan-1-one]	> 5000
Cc1ccsc1C(=O)N1CCN(S(=O)(=O)c2cc(C#N)ccc2Oc2cc(Cl)cc(Cl)c2)CC1 [Compound 138]	50 to 500
N#Cc1ccc(Oc2cc(Cl)cc(Cl)c2)c(S(=O)(=O)N2CCN(C(=S)NC(=O)c3ccccc3)CC2)c1 [Compound 145]	≤ 50
COc1ccc(C(=O)N2CCN(S(=O)(=O)c3cc([N+](=O)[O-])ccc3Oc3cc(Cl)ccc3Cl)CC2)cc1 [Compound 184, (4-(2-(2,5-Dichlorophenoxy)-5-nitrophenylsulfonyl)piperazin-1-yl)(4-methoxyphenyl)methanone]	> 5000
COc1ccc(NC(=O)N2CCN(S(=O)(=O)c3cc(C#N)ccc3Oc3cc(C)cc(C)c3)CC2)cc1 [Compound 118]	> 5000
Cc1ccc(S(=O)(=O)N2CCN(S(=O)(=O)c3cc(C#N)ccc3Oc3cc(Cl)cc(Cl)c3)CC2)cc1 [Compound 77, 4-(3,5-Dichlorophenoxy)-3-(4-tosylpiperazin-1-ylsulfonyl)benzonitrile]	≤ 50
N#Cc1ccc(Sc2cc(Cl)cc(Cl)c2)c(S(=O)(=O)N2CCN(C(=O)c3ccccc3)CC2)c1 [Compound 99]	> 5000
Cc1cc(C)cc(Oc2ccc(C#N)cc2S(=O)(=O)N2CCN(C(=S)N(C)C)CC2)c1 [Compound 121]	> 5000
N#Cc1ccc(Oc2cc(Cl)cc(Cl)c2)c(S(=O)(=O)N2CCN(C(=O)c3ccno3)CC2)c1 [Compound 124]	50 to 500
N#Cc1ccc(Oc2cc(Cl)cc(Cl)c2)c(S(=O)(=O)N2CCN(C(=O)NCCCl)CC2)c1 [Compound 142]	50 to 500
